Test results reported in paper PMC8453481, “OFF-State-Specific Inhibition of the Proprotein Convertase Furin” (ACS Chemical Biology, 2021).
Where two headings read alike, the source gives them in different places. Values belong to the molecule of their own block, whether it stands above or below them.

Assays:
[1] = target: T1, human furin (Homo sapiens, UniProt P09958); assay: Enzyme kinetics with fluorogenic substrate pyr-ERTKR-AMC, furin; assay type: biochemical; conditions: pH 7.0, 37 °C; for Ki: competitive inhibition model, constant inhibitor concentration, substrate dilution series, triplicate
T1 construct: made in house; host or cells: HEK293S cells, stably transfected (pCDNA3.1(+)), purified from conditioned medium
T1 sequence (P09958 108-574 limits assumed): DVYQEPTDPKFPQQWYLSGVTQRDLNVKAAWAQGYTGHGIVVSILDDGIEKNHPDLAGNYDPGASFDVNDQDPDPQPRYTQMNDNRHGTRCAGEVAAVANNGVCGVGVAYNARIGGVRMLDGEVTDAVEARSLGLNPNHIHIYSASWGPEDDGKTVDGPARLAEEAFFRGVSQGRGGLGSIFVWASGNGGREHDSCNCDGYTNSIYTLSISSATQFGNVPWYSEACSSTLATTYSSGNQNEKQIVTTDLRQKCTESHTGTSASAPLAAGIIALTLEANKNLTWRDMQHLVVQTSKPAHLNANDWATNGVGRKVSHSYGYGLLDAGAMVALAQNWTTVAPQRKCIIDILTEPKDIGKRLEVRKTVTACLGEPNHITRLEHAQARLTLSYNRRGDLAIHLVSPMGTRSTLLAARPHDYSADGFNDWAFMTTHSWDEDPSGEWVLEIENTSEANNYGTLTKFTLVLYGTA
Description: (§1) HEK293S cells were stably transfected with the coding sequences of human furin,[20] PC5/6 (Arg33-Gly634, UNP[41] Q92824) and PC7 (Pro44-Thr667, UNP[41] Q16549) cloned into the pCDNA3.1(+) vector (ThermoFisher). Cells were grown in DMEM (4.5 g L^–1 glucose, 2 mM L-glutamine, 110 mg l^–1 sodium pyruvate, 3.7 g L^–1 NaHCO3, nonessential amino acids) supplemented with 10% (v/v) FBS. Polyclonal selection of stable cell lines was conducted in the presence of 500 μg mL^–1 G418 (Geneticin). The cells were grown in multilayer flasks (HyperFlask M, Corning) without G418 for large-scale protein expression. The medium of confluent expression cultures was exchanged with DMEM supplemented with 2 mM sodium butyrate as well as with FBS (2% (v/v), furin) or without FBS (PC5/6 and PC7). The medium exchange was repeated five (furin) or two (PC5/6 and PC7) times, and the centrifuged medium (20 min, 5500 g, 4 °C) was stored at −80 °C until further use.
(§2) The purification of human furin from a conditioned medium has been shown previously.[20] […]
(§3) Enzyme kinetic measurements were performed in 100 mM HEPES/NaOH, at pH 7.0, 2 mM CaCl2, and 0.2% (v/v) Triton X 100 with the fluorogenic substrate pyr-ERTKR-7-amino-4-methylcoumarin (Bachem) at 37 °C. The 100 μL reactions were prepared in 96-well black half-area plates (Corning), preincubated for 15 min at 37 °C and measured in a 96-well plate reader (Tecan infinite 200) at excitation and emission wavelengths of 380 and 460 nm. […] The KM values were determined with 1:2 dilution series of the substrate in the absence of an inhibitor (4.7 ± 0.4 μM for furin, 2.5 ± 0.2 μM for PC5/6, and 19.3 ± 0.8 μM for PC7; Figure S7). Enzyme kinetic data were evaluated with GRAPHPAD PRISM (GraphPad Software) using the prebuild “Michaelis–Menten” model to calculate KM and a competitive inhibition model (v = Vmax × S/[S + KM(1 + I/Ki)]; v = reaction velocity, Vmax = maximum velocity, S = substrate concentration, KM = Michaelis–Menten constant, Ki = inhibition constant) for Ki determination. […]

[2] = target: T2, PC5/6 (Homo sapiens, UniProt Q92824); assay: Enzyme kinetics with fluorogenic substrate pyr-ERTKR-AMC, PC5/6; assay type: biochemical; conditions: pH 7.0, 37 °C; for Ki: competitive inhibition model, constant inhibitor concentration, substrate dilution series, triplicate
T2 construct: PC5/6 (Arg33-Gly634, UNP[41] Q92824); made in house; host or cells: HEK293S cells, stably transfected (pCDNA3.1(+)), purified from conditioned medium
T2 sequence (Q92824 33-634): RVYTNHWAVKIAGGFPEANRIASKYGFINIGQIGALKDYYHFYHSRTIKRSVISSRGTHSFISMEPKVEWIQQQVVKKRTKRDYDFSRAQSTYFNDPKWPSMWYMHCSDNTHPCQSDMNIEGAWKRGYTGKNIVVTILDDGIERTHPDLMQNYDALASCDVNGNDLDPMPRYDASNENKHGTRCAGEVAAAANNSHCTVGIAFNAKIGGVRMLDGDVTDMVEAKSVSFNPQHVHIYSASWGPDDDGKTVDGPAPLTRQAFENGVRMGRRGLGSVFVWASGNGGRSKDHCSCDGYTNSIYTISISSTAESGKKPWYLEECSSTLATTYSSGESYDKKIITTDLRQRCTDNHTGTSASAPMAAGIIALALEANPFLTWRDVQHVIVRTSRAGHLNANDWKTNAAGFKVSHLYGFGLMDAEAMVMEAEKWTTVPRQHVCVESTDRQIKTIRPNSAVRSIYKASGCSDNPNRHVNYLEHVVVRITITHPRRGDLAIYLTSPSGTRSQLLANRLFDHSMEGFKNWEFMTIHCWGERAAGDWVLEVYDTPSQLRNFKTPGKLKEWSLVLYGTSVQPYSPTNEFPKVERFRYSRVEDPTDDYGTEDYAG
Description: as §1, §2, §3

[3] = target: T3, PC7 (Homo sapiens, UniProt Q16549); assay: Enzyme kinetics with fluorogenic substrate pyr-ERTKR-AMC, PC7; assay type: biochemical; conditions: for potency loss / increase of the Ki for PC7 compared with furin: Ki PC7 versus Ki furin; for Ki: competitive inhibition model, constant inhibitor concentration, substrate dilution series, triplicate
T3 construct: PC7 (Pro44-Thr667, UNP[41] Q16549); made in house
T3 sequence (Q16549 142-667 limits assumed): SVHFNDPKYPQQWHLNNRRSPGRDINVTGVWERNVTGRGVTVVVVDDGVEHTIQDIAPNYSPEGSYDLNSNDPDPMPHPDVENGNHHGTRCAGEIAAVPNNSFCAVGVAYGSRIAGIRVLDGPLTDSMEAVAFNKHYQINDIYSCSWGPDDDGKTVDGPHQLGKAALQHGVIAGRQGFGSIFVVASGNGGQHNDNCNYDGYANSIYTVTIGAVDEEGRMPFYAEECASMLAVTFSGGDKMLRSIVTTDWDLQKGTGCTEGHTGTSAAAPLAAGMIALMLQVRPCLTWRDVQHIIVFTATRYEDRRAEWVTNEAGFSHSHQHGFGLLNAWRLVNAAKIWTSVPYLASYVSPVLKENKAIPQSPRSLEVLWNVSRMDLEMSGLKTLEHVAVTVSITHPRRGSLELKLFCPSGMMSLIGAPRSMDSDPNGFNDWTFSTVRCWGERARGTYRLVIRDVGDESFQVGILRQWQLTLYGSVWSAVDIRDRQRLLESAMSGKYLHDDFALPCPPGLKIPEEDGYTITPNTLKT
Description: as §1
The purification of human furin from a conditioned medium has been shown previously.[20] PC5/6 and PC7 were purified by immobilized metal affinity chromatography and gel permeation chromatography (GPC), as shown for furin but excluding the inhibitor affinity purification step.[20] PC7 (50 μg mL^–1) was fully activated in 50 mM Tris/HCl, at pH 7.5, 10 mM CaCl2, and 0.15 M NaCl, at pH 7.5, in the presence of 2.0 μg mL^–1 thermolysin for 16 h at 37 °C. To remove thermolysin, the reaction mixture was concentrated in an ultrafiltration device (30 kDa cutoff, amicon, Millipore) and subjected to GPC (both steps at 4 °C). Purified PC5/6 and PC7 were stored at −20 °C.
Enzyme kinetic measurements were performed in 100 mM HEPES/NaOH, at pH 7.0, 2 mM CaCl2, and 0.2% (v/v) Triton X 100 with the fluorogenic substrate pyr-ERTKR-7-amino-4-methylcoumarin (Bachem) at 37 °C. The 100 μL reactions were prepared in 96-well black half-area plates (Corning), preincubated for 15 min at 37 °C and measured in a 96-well plate reader (Tecan infinite 200) at excitation and emission wavelengths of 380 and 460 nm. Because of the autofluorescence of inhibitor 1, the Ki values were determined at constant inhibitor concentrations (1: 20 μM for furin, 15 μM for PC5/6 and 50 μM for PC7; 2: 10 μM for furin, 5 μM for PC5/6 and 15 μM for PC7) and 1:2 dilution series of the substrate (Figure S7). The KM values were determined with 1:2 dilution series of the substrate in the absence of an inhibitor (4.7 ± 0.4 μM for furin, 2.5 ± 0.2 μM for PC5/6, and 19.3 ± 0.8 μM for PC7; Figure S7). Enzyme kinetic data were evaluated with GRAPHPAD PRISM (GraphPad Software) using the prebuild “Michaelis–Menten” model to calculate KM and a competitive inhibition model (v = Vmax × S/[S + KM(1 + I/Ki)]; v = reaction velocity, Vmax = maximum velocity, S = substrate concentration, KM = Michaelis–Menten constant, Ki = inhibition constant) for Ki determination. All measurements were performed in triplicate.

[4] = target: T1, human furin; assay: Crystallography-based inhibitor titration of furin crystals (occupancy refinement); assay type: binding
Description: Because of the lower number of specific interactions, we assumed that the binding affinity of 2 for the S4 pocket is lower as compared to the S1 pocket. […] The strength of the electron density directly correlates to the occupation of the binding sites with the inhibitor. Indeed, we found the S1 pocket already occupied by 2 at 0.4 mM as indicated by the occupancy of 75% from crystallographic refinement (Table S2). […] The refined occupancy of inhibitor 2 at the S1 pocket at 40 mM concentration was 0.94. It should be noted that water molecules occupy the substrate binding pockets in absence of any ligand.[22] The binding sites of these water molecules overlap with the binding sites of the inhibitors and affect crystallographic occupancy refinement. Thus, the refined occupation should always be considered in context with the electron density (Figure 6C–E). […] We also observed a third binding site of 2 and 3 outside of the substrate binding cleft. Here, two inhibitor molecules are stacked between two arginine residues of a crystal contact. This binding mode is specific for the crystal lattice and thus is not expected to occur in solution (Figure S5B, D).
The optimized soaking solutions contained either 1.0 M NaCl, 200 mM Mes/NaOH, at pH 5.5, 10% (w/v) PEG8000, and 20% (v/v) DMSO or 0.25 M NaCl, 200 mM Mes/NaOH, at pH 5.5, 20% (w/v) PEG8000, and 20% (v/v) DMSO and were supplemented with the specific inhibitors. Inhibitors 1 and 2 were soaked at 20 mM concentration in 1 M NaCl containing soaking solution for 0.5 h. Inhibitor 3 and 4 were soaked in 0.25 M NaCl containing soaking solution for 0.5 h at an inhibitor concentration of 100 mM and 20 mM, respectively. For the inhibitor titration experiments with 2, 40 mM, 4 mM, or 0.4 mM of the inhibitor was soaked for 0.5 h in 0.25 M NaCl-containing soaking solution. Soaked crystals were flash cooled in liquid N2. Diffraction data collection was performed at the synchrotron beamline BL14.2[33] (BESSY-II) of Helmholtz-Zentrum Berlin (HZB). The data were processed using XDS[34] with XDS-APP[35] (v2.0) and the CCP4 program suite[36] (v.7.1.001). COOT[37] (v.0.8.9.2) was used for model building. Refinement was performed in PHENIX[38] (v1.18.2) using the PDB ID 5JXG([22]) as an initial model. One specific Rfree-set (initially generated up to 1.0 Å, ref ([22])) was transferred to the data sets prior refinement start. Geometry restraints of the inhibitors were obtained from the PRODRG server[39] and from the GRADE Web server (http://grade.globalphasing.org). All guanylhydrazones were modeled in the E configuration, which is in agreement with previous studies with model compounds.[40] Electron density omit maps were calculated in PHENIX[38] (v1.18.2). PYMOL was used for molecular graphics (http://www.pymol.org) and structural alignments. In the case of inhibitor titration experiments with 2, the structure was first built and refined for a crystal soaked at 40 mM. This structure was used to calculate refinements with (for occupancy calculation) and without (for omit map calculation) an inhibitor in the model for three additional crystals independently soaked at 40 mM, 4 mM, and 0.4 mM (Table S2) obtaining R/Rfree-values of 17.3/19.0, 17.5/19.1, and 17.7/19.3, respectively. The occupancy refinement yielded consistent B-factors between the three differently soaked structures (Table S2). Structure factors and coordinates of the complexes of furin with inhibitors 1, 2, at 1 M NaCl; 2 at 0.25 M NaCl; and 3 and 4 have been deposited as PDB entries 7O1U, 7O1W, 7O1Y, 7O20, and 7O22, respectively.

[5] = target: furin; conditions: read-out: Ki furin (reported), cited from earlier work
[6] = ref 29; cited from earlier work
[7] = absence of inhibitor, 1:2 dilution series of the substrate
[8] = 0.4 mM inhibitor, 0.25 M NaCl soak
[9] = 0.4 mM inhibitor, 0.25 M NaCl soak, * very weak electron density
[10] = 4 mM inhibitor, 0.25 M NaCl soak
[11] = 40 mM inhibitor, 0.25 M NaCl soak

Molecule: C/C(=N\NC(=N)N)c1cc(N)cc(/C(C)=N/NC(=N)N)c1 [inhibitor 1]
Ki [1]: 3.3 ± 0.1 µM | Ki [2]: 3.6 ± 0.2 µM | potency loss / increase of the Ki for PC7 compared with furin [3]: ~7 fold | Ki ([3]; pH 7.0, 37 °C): 22.4 ± 1.9 µM

Km [1, 7]: 4.7 ± 0.4 µM | Km [2, 7]: 2.5 ± 0.2 µM | Km ([3]; absence of inhibitor, 1:2 dilution series of the substrate, pH 7.0, 37 °C): 19.3 ± 0.8 µM
Molecule: pyr-ERTKR-7-amino-4-methylcoumarin [reference compound]

Molecule: N=C(N)N/N=C/c1ccc(/C=N/NC(=N)N)cc1 [inhibitor 2]
Ki [1]: 3.1 ± 0.2 µM | Ki [2]: 1.7 ± 0.2 µM | potency loss / increase of the Ki for PC7 compared with furin [3]: ~3 fold | Ki ([3]; pH 7.0, 37 °C): 10.4 ± 0.7 µM | occupancy at S1 pocket [4, 8]: 75% | refined occupancy, molecule 1, S1 pocket [4, 8]: 0.75 | refined occupancy, molecule 2, S4 pocket [4, 9]: 0.39 | refined occupancy, molecule 3, crystal contact site [4, 9]: 0.35 | occupancy at S4 pocket [4, 10]: 63% | refined occupancy, molecule 1, S1 pocket [4, 10]: 0.87 | refined occupancy, molecule 2, S4 pocket [4, 10]: 0.63 | refined occupancy, molecule 3, crystal contact site ([4]; 4 mM inhibitor, 0.25 M NaCl soak, * very weak electron density): 0.38 | occupancy at S4 pocket [4, 11]: 82% | refined occupancy, molecule 1, S1 pocket [4, 11]: 0.94 | refined occupancy, molecule 2, S4 pocket [4, 11]: 0.82 | refined occupancy, molecule 3, crystal contact site [4, 11]: 0.66 | apparent dissociation constant at the S4 binding site ([4]; estimated from inhibitor titration of crystals, 0.25 M NaCl): low millimolar range

Molecule: N=C(N)N/N=C/c1ccccc1OCc1ccc(Cl)cc1 [inhibitor 4]
Ki ([5]; ref 24): 11.8 µM | Ki ([5]; ref 26): 25.3 µM

Molecule: N=C(N)N/N=C/c1c(Cl)cccc1Cl [guanabenz]
pKa [6]: 8.1

Molecule: C/C(=N\NC(=N)N)c1ccccc1 [inhibitor 3]
Ki ([5]; ref 26): 273 µM
